# In PMC6952396, “Structural basis for itraconazole-mediated NPC1 inhibition” (Nature Communications, 2020):
# How the values were obtained:
# [1] = tested on: NPC1 mutants (W381E, L613E, Y628S, I685S, and Y1225E); assay: Cross-linking of P-X to NPC1 binding-site mutants in intact HEK293S cells; assay type: cell-based, human; details: 0.3 μM P-X
# Text: The I-Br binds to a hydrophobic cavity that is generated by the SSD, the MLD and the CTD in the center of NPC1 (Fig. 3d). Residues in the N-terminal loop and C-terminal helices of the MLD and the CTD, as well as TMs 3, 4, 5, and 13 contribute to the cavity that accommodates I-Br (Figs. 3d, 4a, b). The terminal sec-butyl moiety of I-Br inserts into the cavity and is contacted by residues W381, I609, L613, I685, F1087, I1220, and Y1225 (Fig. 4a, b). […] To validate our structural observation, we have generated five NPC1 mutants (W381E, L613E, Y628S, I685S, and Y1225E) located in the binding site and individually transfected the mutant cDNAs into HEK293S cells.
# pNPC1 encoding wild-type human NPC1 (amino acids 1–1278) followed sequentially by three tandem copies of the Flag epitope tag ([…]) was constructed into pcDNA3.1. Expression is achieved with the cytomegalovirus (CMV) promoter. […]
# For cross-linking of P-X to NPC1 and mutants in intact cells, the mammalian HEK-293S GnTI^- cells (ATCC, CRL-3022) overexpressing NPC1 and mutants were set up in 500 mL of freestyle medium with 2% FCS at a density of 2 × 10^6 cells per ml. […] An aliquot of each sample was subjected to 8% SDS/PAGE, and fluorescent-labeled proteins were visualized by in-gel fluorescence as described above. […]
# human NPC1 = tested on: T1, human NPC1; details: NPC1 reconstituted in lipid nanodiscs; cited from earlier work
# T1 construct: Strep-tag; made in house; host or cells: HEK-293S GnTI- cells (baculovirus-mediated transduction)
# [2] = tested on: NPC1-mediated cholesterol export; details: cited from earlier work
SMILES,cross-linking of P-X to NPC1 mutants in cells [1],cross-linking of P-X to purified NPC1 (human NPC1),inhibition of cholesterol export from lysosomes [2]
C#CCOc1ccc(C(=O)c2ccc(C(=O)OC(C)C(CC)n3ncn(-c4ccc(N5CCN(c6ccc(OCC7COC(Cn8cncn8)(c8ccc(F)cc8F)O7)cc6)CC5)cc4)c3=O)cc2)cc1 (stereo not drawn) [P-X],not efficiently cross-linked,cross-linked,
"CCC(C)n1ncn(-c2ccc(N3CCN(c4ccc(OCC5COC(Cn6cncn6)(c6ccc(Cl)cc6Cl)O5)cc4)CC3)cc2)c1=O (stereo not drawn) [Itraconazole mixture, itraconazole]",,,inhibit cholesterol export from lysosomes
